Among the data in the supplement of paper PMC10307832 are relative viability values, retold here.

What all share (experiment): relative viability (nuclei count vs DMSO), 5 days (fraction); higher = more cells survive
Compound in experiment [1]: CC(C)=CC[C@@H](O)C1=CC(=O)c2c(O)ccc(O)c2C1=O [Shikonin] + CC(=O)c1c(C)c2cnc(Nc3ccc(N4CCNCC4)cn3)nc2n(C2CCCC2)c1=O [Palbociclib] (partner 0.5 µM)
Put shortly:
(§1)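 Nuclei were stained with Hoechst during a one-step fixation (final 0.05% Triton X-100, 1% formaldehyde, 1 ug/ml Hoechst) carried out 5 days after dosing, then counted on 4× images. The cells, lung cancer lines in 1536-well plates, had been dosed by pin tool the day after seeding with one drug alone or a fixed anchor-drug dose plus five library-drug doses (not always all listed) in √10 steps. Relative viability is the nuclei count in treated wells divided by that in vehicle wells, and each value is the median of duplicate plates.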

Compound in experiment [2]: CC(C)=CC[C@@H](O)C1=CC(=O)c2c(O)ccc(O)c2C1=O [Shikonin] + CCNC(=O)c1noc(-c2cc(C(C)C)c(O)cc2O)c1-c1ccc(CN2CCOCC2)cc1 [Luminespib] (partner 0.01 µM)
The method in brief: as §1

Compound in experiment [3]: CC(C)=CC[C@@H](O)C1=CC(=O)c2c(O)ccc(O)c2C1=O [Shikonin] + N=C(N)NC(=N)NCCc1ccccc1 [Phenformin] (partner 250 µM)
The method in brief: as §1

Compound in experiment [4]: CC(C)=CC[C@@H](O)C1=CC(=O)c2c(O)ccc(O)c2C1=O [Shikonin] + C[C@@H](Oc1cc(-c2cnn(C3CCNCC3)c2)cnc1N)c1c(Cl)ccc(F)c1Cl [Crizotinib] (partner 1 µM)
The method in brief: as §1

Compound in experiment [5]: CC(C)=CC[C@@H](O)C1=CC(=O)c2c(O)ccc(O)c2C1=O [Shikonin] + Cc1nc(NC(=O)N2CCC[C@H]2C(N)=O)sc1-c1ccnc(C(C)(C)C(F)(F)F)c1 [Alpelisib] (partner 2 µM)
Put shortly:
as §1

UMC-11: the relative viability in experiment [1] (first compound 0.01 µM) was 0.297; in experiment [1] (first compound 0.1 µM) it was 0.351; in experiment [1] (first compound 0.3162 µM), 0.335; in experiment [1] (first compound 1 µM), 0.338; in experiment [2] (first compound 0.01 µM), 0.997; in experiment [2] (first compound 0.1 µM), 1.05. The relative viability stood at 0.986 in experiment [2] (first compound 0.3162 µM); 0.996 in experiment [2] (first compound 1 µM); 0.337 in experiment [3] (first compound 0.01 µM); 0.329 in experiment [3] (first compound 0.1 µM); 0.348 in experiment [3] (first compound 0.3162 µM); 0.331 in experiment [3] (first compound 1 µM). The relative viability in experiment [4] (first compound 0.01 µM) worked out at 0.745; in experiment [4] (first compound 0.1 µM), 0.559; in experiment [4] (first compound 0.3162 µM), 0.658; in experiment [4] (first compound 1 µM) it was 0.633; in experiment [5] (first compound 0.01 µM), 0.875; in experiment [5] (first compound 0.1 µM), 1.08. Besides, the relative viability in experiment [5] (first compound 0.3162 µM) was found to be 0.996; in experiment [5] (first compound 1 µM), 1.18.
